Assay results as given in US20090047243A1, “COMBINATIONS FOR THE TREATMENT OF B-CELL PROLIFERATIVE DISORDERS” (priority 2007, published 2009).

Assays:
[1] = tested on: human multiple myeloma cells (MM.1S); test: Anti-proliferation assay (ATPLite, 72 h); assay type: cell-based; set-up: key to synergy score / synergy (score), PDEi × HE-NECA: S = lnfX·lnfY·ΣIdata(Idata−ILoewe), volume over Loewe additivity; conditions: for synergy (score), PDEi × HE-NECA: 6×6 cross of PDE inhibitor or PDE inhibitor mixture with HE-NECA
Description: (§1) ANBL6 and INA-6 culture media was also supplemented with 10 ng/ml IL-6. […] MM.1S, MM.1R, OCI-ly10, Karpas 422, and SU-DHL6 cells were provided by the Dana Farber Cancer Institute. H929, RPMI-8226, GA-10, and Farage cells were from ATCC (Cat #'s CCL-155, CRL-9068, CRL-2392 and CRL-2630 respectively). MOLP-8, EJM, KSM-12-PE, and OPM2 were from DSMZ. The ANBL6 and INA-6 cell lines were provided by the M. D. Anderson Cancer Research Center. Compounds were prepared in DMSO at 1000× the highest desired concentration. Master plates were generated consisting of serially diluted compounds in 2- or 3-fold dilutions in 384-well format. For single agent dose response curves, the master plates consisted of 9 individual compounds at 12 concentrations in 2- or 3-fold dilutions. For combination matrices, master plates consisted of individual compounds at 6 or 9 concentrations at 2- or 3-fold dilutions. […] To obtain combination data, two master plates were diluted into the assay plates. […] Thirty microliters of ATPLite (Perkin Elmer) at room temperature was then added to each well. […] Measurements were taken at the top of the well using a luminescence aperture and a read time of 0.1 seconds per well. The percent inhibition (% I) for each well was calculated using the following formula: % I=[(avg. untreated wells-treated well)/(avg. untreated wells)]×100. […] Negative inhibition values result from local variations in treated wells as compared to untreated wells. […] The uncertainty of each fitted parameter was estimated from the range over which the change in reduced chi-squared was less than one, or less than minimum reduced chi-squared if that minimum exceeded one, to allow for underestimated σI errors. Single agent curve data were used to define a dilution series for each compound to be used for combination screening in a 6×6 matrix format. […] The Loewe additivity model was used to quantify combination effects. […] A “Synergy Score” was also used, where the Synergy Score S=log fX log fY ΣIdata(Idata-ILoewe), summed over all non-single-agent concentration pairs, and where log fX,Y is the natural logarithm of the dilution factors used for each single agent. This effectively calculates a volume between the measured and Loewe additive response surfaces, weighted towards high inhibition and corrected for varying dilution factors. An uncertainty σS was calculated for each synergy score, based on the measured errors for the Idata values and standard error propagation.

[2] = tested on: H929 multiple myeloma cell line; test: Anti-proliferation assay (ATPLite, 72 h); assay type: cell-based, human; set-up: key: S = lnfX·lnfY·ΣIdata(Idata−ILoewe), volume over Loewe additivity; conditions: for synergy (score), PDEi × HE-NECA: 6×6 cross of PDE inhibitor or PDE inhibitor mixture with HE-NECA
Description: as §1

[3] = tested on: RPMI-8226 multiple myeloma cell line; test: Anti-proliferation assay (ATPLite, 72 h); assay type: cell-based, human; set-up: key: S = lnfX·lnfY·ΣIdata(Idata−ILoewe), volume over Loewe additivity
Description: as §1

[4] = tested on: human multiple myeloma cells (MM.1R); test: Anti-proliferation assay (ATPLite, 72 h); assay type: cell-based; set-up: key: S = lnfX·lnfY·ΣIdata(Idata−ILoewe), volume over Loewe additivity
Description: as §1

[5] = tested on: phosphodiesterase (PDE) types; conditions: PDE type(s) in brackets after the name; cited from earlier work
[6] = PDE inhibitor crossed with (S) ENBA, MM.1S
[7] = PDE inhibitor crossed with ADAC, MM.1S
[8] = PDE inhibitor crossed with Chloro-IB-MECA, MM.1S
[9] = PDE inhibitor crossed with HE-NECA, MM.1S
[10] = in combination with adenosine receptor agonist CGS-21680, MM.1S
[11] = in combination with adenosine receptor agonist HE-NECA, MM.1S
[12] = in combination with adenosine receptor agonist regadenoson, MM.1S
[13] = PDE inhibitor crossed with (S) ENBA, H929
[14] = PDE inhibitor crossed with ADAC, H929
[15] = PDE inhibitor crossed with Chloro-IB-MECA, H929
[16] = PDE inhibitor crossed with HE-NECA, H929
[17] = in combination with adenosine receptor agonist CGS-21680, H929
[18] = in combination with adenosine receptor agonist HE-NECA, H929
[19] = in combination with adenosine receptor agonist regadenoson, H929
[20] = in combination with adenosine receptor agonist CGS-21680, RPMI 8226
[21] = in combination with adenosine receptor agonist HE-NECA, RPMI-8226
[22] = in combination with adenosine receptor agonist regadenoson, RPMI 8226
[23] = in combination with adenosine receptor agonist CGS-21680, MM.1R
[24] = in combination with adenosine receptor agonist regadenoson, MM.1R
[25] = in combination with adenosine receptor agonist ADAC, MM.1S
[26] = in combination with adenosine receptor agonist ADAC, H929
[27] = in combination with adenosine receptor agonist ADAC, RPMI-8226
[28] = in combination with adenosine receptor agonist ADAC, MM.1R

Row | Structure (SMILES) | synergy score [1, 6] | synergy score [1, 7] | synergy score [1, 8] | synergy score [1, 9] | synergy score [1, 10] | synergy score [1, 11] | synergy score [1, 12] | synergy score [2, 13] | synergy score [2, 14] | synergy score [2, 15] | synergy score [2, 16] | synergy score [2, 17] | synergy score [2, 18] | synergy score [2, 19] | synergy score [3, 20] | synergy score [3, 21] | synergy score [3, 22] | synergy score [4, 23] | synergy score [4, 24] | PDE inhibitors (specificity) [5] | further results
1 | COc1ccc(Cc2nn3c([C@@H](CCCc4ccccc4)[C@@H](C)O)nc(C)c3c(=O)[nH]2)cc1OC [BAY 60-7550, 2-(3,4-dimethoxybenzyl)-7-[(1R)-1-[(1R)-1-hydroxyethyl]-4-phenylbutyl]-5-methylimidazo[5,1-f][1,2,4]triazin-4(3H)-one] | 2.84 | 0.85 | 0.86 | 3.8 | 3.85 | 2.364 | 0.91 | 1.07 | 0.55 | 0.74 | 3.71 | 3.86 | 1.933 | 1.89 | 0.76 | 0.7784 | 0.98 | 4.59 | 3.07 | BAY 60-7550 (2) | synergy (score), PDEi × HE-NECA ([1]; MM.1S): 1.64; inhibition at 0.7375 µM ([1]; Homo sapiens, MM1.S, BAY 60-7550 0.7375 μM, HE-NECA conc. (nM), read-out: Percent inhibition of ATP in MM.1S cells): -9.4%; inhibition at 1.475 µM ([1]; Homo sapiens, MM1.S, BAY 60-7550 1.475 μM, HE-NECA conc. (nM), read-out: Percent inhibition of ATP in MM.1S cells): -3.6%; inhibition at 2.95 µM ([1]; Homo sapiens, MM1.S, BAY 60-7550 2.95 μM, HE-NECA conc. (nM), read-out: Percent inhibition of ATP in MM.1S cells): 4%; inhibition at 5.9 µM ([1]; Homo sapiens, MM1.S, BAY 60-7550 5.9 μM, HE-NECA conc. (nM), read-out: Percent inhibition of ATP in MM.1S cells): 6%; inhibition at 11.8 µM ([1]; Homo sapiens, MM1.S, BAY 60-7550 11.8 μM, HE-NECA conc. (nM), read-out: Percent inhibition of ATP in MM.1S cells): 13%; synergy (score), PDEi × HE-NECA ([2]; H929): 1.68
2 | Cc1ccc([N+](=O)[O-])cc1S(=O)(=O)N(C)C [BRL-50481, 3-(N,N-dimethylsulfonamido)-4-methyl-nitrobenzene] | 1.22 | – | 1.47 | 1.41 | 1.78 | 1.38 | 0.82 | 0.26 | – | 0.34 | 0.23 | 0.34 | 0.193 | 0.19 | 0.19 | 0.147 | 0.39 | 1.22 | 1.09 | BRL-50481(7) | –
3 | CN(C(=O)CCCOc1ccc2[nH]c(=O)ccc2c1)C1CCCCC1 [Cilostamide, N-cyclohexyl-4-((1,2-dihydro-2-oxo-6-quinolinyl)oxy)-N-methyl-butanamide] | – | – | 1.1 | 0.49 | – | 1.637 | – | 1.17 | – | 0.65 | 0.28 | – | 1.67 | – | – | 0.2381 | – | – | – | Cilostamide (3) | synergy (score), PDEi × HE-NECA ([1]; MM.1S): 1.02; synergy (score), PDEi × HE-NECA ([2]; H929): 0.56; synergy score ([4]; in combination with adenosine receptor agonist HE-NECA, MM.1R): 1.692
4 | O=C1CCc2cc(OCCCCc3nnnn3C3CCCCC3)ccc2N1 [Cilostazol, 6-[4-(1-cyclohexyl-1H-tetrazol-5-yl)butoxy]-3,4-dihydro-2(1H)-quinolinone] | 1.73 | 0.89 | 0.75 | 3.50 | 4.09 | 1.849 | 1.85 | 0.4 | 0.36 | 0.46 | 1.21 | 1.12 | 0.6849 | 1.34 | 0.37 | 0.2486 | 0.12 | 1.57 | 0.76 | Cilostazol (3) | –
5 | CCCCOc1cc(CC2CNC(=O)N2)ccc1OC (centres unmarked) [RO-20-1724, 4-(3-butoxy-4-methoxybenzyl)-2-imidazolidinone] | 0.73 | 1.71 | 1.6 | 3.58 | – | – | – | 0.09 | 1.11 | 1.14 | 2.51 | – | – | – | – | – | – | – | – | RO-20-1724 (4) | inhibition at 2.28 µM ([1]; Homo sapiens, MM1.S, RO-20-1724 2.28 μM, HE-NECA conc. (nM), read-out: Percent inhibition of ATP in MM.1S cells): 2.3%; inhibition at 4.55 µM ([1]; Homo sapiens, MM1.S, RO-20-1724 4.55 μM, HE-NECA conc. (nM), read-out: Percent inhibition of ATP in MM.1S cells): 11%; inhibition at 18.2 µM ([1]; Homo sapiens, MM1.S, RO-20-1724 18.2 μM, HE-NECA conc. (nM), read-out: Percent inhibition of ATP in MM.1S cells): 10%; inhibition at 36.4 µM ([1]; Homo sapiens, MM1.S, RO-20-1724 36.4 μM, HE-NECA conc. (nM), read-out: Percent inhibition of ATP in MM.1S cells): 1.4%; synergy score [1, 25]: 1.71; synergy score [2, 26]: 1.1; synergy score [3, 27]: 0.51; synergy score [4, 28]: 3.42
6 | COc1ccc(C2CNC(=O)C2)cc1OC1CCCC1 (centres unmarked) [Rolipram, 4-(3-cyclopentyloxy-4-methoxyphenyl)-2-pyrrolidone] | 0.73 | 1.15 | 1.11 | 1.08 | – | 1.076 | – | 0.46 | 1.11 | 0.74 | 1.09 | – | 1.089 | – | – | 0.2845 | – | – | – | Rolipram (4) | synergy score [1, 25]: 1.147; synergy score [2, 26]: 1.114; synergy score [3, 27]: 0.4277; synergy score [4, 28]: 4.105
